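Each compound was tested at five concentrations against cells in 96-well plates for 48 hours. GI50 marks 50% less growth.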 The source made the active and inactive calls. Rule as the data show it: active = GI50 up to about 1.1 µM and inactive = higher.
Tests used:
Test in all cases: NCI-60 cell line screen, 48 h
SK-MEL-28 = system: SK-MEL-28
SK-MEL-2 = system: SK-MEL-2
IGROV-1 = system: IGROV-1
NCI-H23 = system: NCI-H23
HCT-116 = system: HCT-116
OVCAR-3 = system: OVCAR-3
COLO 205 = system: COLO 205
SK-MEL-5 = system: SK-MEL-5
SF-539 = system: SF-539
HOP-62 = system: HOP-62
HCT-15 = system: HCT-15
HCC 2998 = system: HCC 2998
RPMI-8226 = system: RPMI-8226
UACC-257 = system: UACC-257
786-0 = system: 786-0
OVCAR-4 = system: OVCAR-4
NCI/ADR-RES = system: NCI/ADR-RES
PC-3 = system: PC-3
MDA-MB-231 = system: MDA-MB-231
MCF7 = system: MCF7

| Structure (SMILES) | GI50 (SK-MEL-28) | GI50 (SK-MEL-2) | GI50 (IGROV-1) | GI50 (NCI-H23) | GI50 (HCT-116) | GI50 (OVCAR-3) | GI50 (COLO 205) | GI50 (SK-MEL-5) | GI50 (SF-539) | GI50 (HOP-62) | GI50 (HCT-15) | GI50 (HCC 2998) | GI50 (RPMI-8226) | GI50 (UACC-257) | GI50 (786-0) | GI50 (OVCAR-4) | GI50 (NCI/ADR-RES) | GI50 (PC-3) | GI50 (MDA-MB-231) | GI50 (MCF7) |
| --- | --- | --- | --- | --- | --- | --- | --- | --- | --- | --- | --- | --- | --- | --- | --- | --- | --- | --- | --- | --- |
| COc1ccccc1/N=N/C(C(=O)c1ccccc1)C(=O)c1ccccc1 | 26.9 µM (inactive) | 20.7 µM (inactive) | 27 µM (inactive) | 19.2 µM (inactive) | 11.5 µM (inactive) | 22.5 µM (inactive) | 33.3 µM (inactive) | 18 µM (inactive) | 26.2 µM (inactive) | 15.5 µM (inactive) | 14.9 µM | 27.1 µM (inactive) | 12.4 µM (inactive) | 28.4 µM (inactive) | 24.4 µM (inactive) | 9.53 µM (inactive) | – | – | – | – |
| CC12CCC(CC(=O)/C1=C(/Br)I)C2(C)C (stereo not drawn) | 16.2 µM (inactive) | 13.7 µM (inactive) | 16.9 µM (inactive) | 13.5 µM (inactive) | 12.4 µM (inactive) | 13.6 µM (inactive) | 17.2 µM (inactive) | 11.4 µM (inactive) | 15.7 µM (inactive) | 17.9 µM (inactive) | 10.9 µM | – | 6.25 µM (inactive) | 16.2 µM (inactive) | 16.1 µM (inactive) | 15.1 µM (inactive) | 15.3 µM (inactive) | 11.1 µM (inactive) | 5.57 µM (inactive) | – |
| COc1cccc(C2c3cc4c(cc3OC(NNc3ccccc3)C2C)OCO4)c1O (stereo not drawn) | 8.77 µM (inactive) | 8.55 µM (inactive) | 5.47 µM (inactive) | 10.1 µM (inactive) | 4.4 µM (inactive) | 2.71 µM (inactive) | 8.75 µM (inactive) | 6.21 µM (inactive) | 3.18 µM (inactive) | 2.51 µM (inactive) | 1.62 µM | 2.08 µM (inactive) | 4.18 µM (inactive) | 4.57 µM (inactive) | 2.88 µM (inactive) | – | – | 4.76 µM (inactive) | 12.6 µM (inactive) | 4.67 µM (inactive) |
| CCCC(=O)NC(NC1CCCCC1)(C(=O)OCC)C(F)(F)F (stereo not drawn) | > 100 µM (inactive) | > 100 µM (inactive) | > 100 µM (inactive) | > 100 µM (inactive) | > 100 µM (inactive) | > 100 µM (inactive) | – | > 100 µM (inactive) | > 100 µM (inactive) | > 100 µM (inactive) | > 100 µM | > 100 µM (inactive) | > 100 µM (inactive) | > 100 µM (inactive) | > 100 µM (inactive) | > 100 µM (inactive) | > 100 µM (inactive) | > 100 µM (inactive) | – | > 100 µM (inactive) |
| O=C(NCCC1([N+](=O)[O-])CCN(C(=O)c2ccccc2)CC1)c1ccccc1 | – | > 100 µM (inactive) | > 100 µM (inactive) | > 100 µM (inactive) | > 100 µM (inactive) | – | 53.7 µM (inactive) | 37.2 µM (inactive) | > 100 µM (inactive) | – | > 100 µM | – | 58.7 µM (inactive) | 24.7 µM (inactive) | > 100 µM (inactive) | 52 µM (inactive) | > 100 µM (inactive) | > 100 µM (inactive) | > 100 µM (inactive) | – |
| COc1ccc2c(c1)c1c3n2CCNN=C3CCC1 | > 100 µM (inactive) | > 100 µM (inactive) | > 85.7 µM (inactive) | > 62.8 µM (inactive) | 99.5 µM (inactive) | > 100 µM (inactive) | > 91 µM (inactive) | > 100 µM (inactive) | > 77.4 µM (inactive) | > 74.3 µM (inactive) | > 70.1 µM | > 100 µM (inactive) | 29.4 µM (inactive) | > 53.8 µM (inactive) | > 100 µM (inactive) | > 100 µM (inactive) | – | – | – | – |
| O=C(O)c1ccc(S(=O)(=O)c2ccccc2)c([N+](=O)[O-])c1 | > 100 µM (inactive) | > 100 µM (inactive) | > 100 µM (inactive) | > 100 µM (inactive) | > 100 µM (inactive) | > 100 µM (inactive) | > 100 µM (inactive) | > 100 µM (inactive) | > 100 µM (inactive) | > 100 µM (inactive) | 93.1 µM | > 100 µM (inactive) | > 100 µM (inactive) | > 100 µM (inactive) | > 100 µM (inactive) | > 100 µM (inactive) | – | – | – | – |
| CCOC(=O)C1=C(Nc2ccc(Br)cc2)OC/C1=N\NC(=O)c1ccccc1O | > 81.3 µM (inactive) | 15.1 µM (inactive) | 6.46 µM (inactive) | 6.52 µM (inactive) | 10.1 µM (inactive) | 21.4 µM (inactive) | 38.9 µM (inactive) | 49.7 µM (inactive) | 11.2 µM (inactive) | 11.2 µM (inactive) | 11.7 µM | 20.3 µM (inactive) | 15 µM (inactive) | 23 µM (inactive) | 15 µM (inactive) | 26.2 µM (inactive) | – | – | – | – |

— ChEMBL document CHEMBL1201862, “PubChem BioAssay data set” (2004)
